Experimental data as given in patent US20230270802A1, “ANTIVIRAL PHARMACEUTICAL COMPOSITION” (GSK CONSUMER HEALTHCARE SARL, priority 2020, published 2023).

Experiments:
Type in all cases: cell-based
[1] = tested on: MucilAir nasal human 3D epithelial model; assay: Cilia beating frequency (CBF), Example 1; conditions: T96h, OC43 infected inserts; Mock 8.5 Hz
Procedure: Cilia beating frequency (CBF) is a parameter that indicates if the nasal epithelia is healthy and carrying out its physiologic function of mucus transport. CBF was measured by a dedicated setup for this purpose. The system consists of three parts: a Sony XCD V60 camera connected to an Olympus BX51 microscope, a PCI card and a specific package of software. The cilia beating frequency is expressed in Hz. […] CBF was then calculated using relevant software. It should be pointed out that CBF values may be subject to fluctuations due to parameters such as temperature, mucus viscosity or liquid applied on the apical surface of the cell model and observed values should be compared to a control condition in each experiment.
At T96h, the ciliary beating frequency (CBF) and the mucociliary clearance (MCC) of all inserts were measured. 200 µl of culture medium was added apically to all inserts and inserts were let sit for 20 minutes at 34° C. During this time, TEER of all inserts was measured. This apical washing liquid was then removed and was stored at -80° C. until the virus copy number was determined. The basal culture medium was removed and stored. 50 µl of the basal culture medium of all inserts was used for the LDH assay.

human coronavirus OC43 = assay: OC43 viral genome copy number in MucilAir nasal epithelium, Example 1; conditions: for Mean viral genome copy number, Log 10 ((Copies/ml) + 1): apical wash, 0.00 = below detection limit
[2] = tested on: MucilAir nasal human 3D epithelial model; assay: Trans-epithelial electronic resistance (TEER), Example 1; conditions: all measured timepoints
From the text: Trans-epithelial electronic resistance (TEER) is a dynamic parameter that reflects the state of epithelia and is typically between 200 to 600 Ω.cm^2. An increase of the TEER value reflects a blockage of the ion channel activities of the MucilAir cell culture. A notable decrease of the TEER values, but with the value still above 100 Ω.cm^2 can be observed in certain cases and indicates an activation of the ion channels. Disruption of cellular junction or holes in the epithelia result in TEER values below 100 Ω.cm^2. When an epithelium is damaged, a decrease of TEER would be associated with an increase of LDH release or a decrease of the cell viability. In this example, TEER was measured after addition of 200 µl of culture medium to the apical compartment of the inserts (i.e. during the washing step). TEER was measured with an EVOMX volt-ohm-meter (World Precision Instruments UK, Stevenage) for each condition. Resistance values (Q) were converted to TEER (Ω.cm^2) using the following formula: TEER (Ω.cm^2) = (resistance value (Ω) - 100 (Ω)) x 0.33 (cm^2), where 100 Q is the resistance of the membrane and 0.33 cm^2 is the total surface of the epithelium in one insert. The TEER measurement was conducted as follows: 200µl of culture medium was added on apical surface of each insert. The EVOMX was turned on. […] Then, the resistance (Q) was measured with the EVOMX in the Ohms measurement function.

| Molecule | Cilia beating frequency (CBF) [1] | Mean viral genome copy number, Log 10 ((Copies/ml) + 1) (human coronavirus OC43; T4h) | Mean viral genome copy number, Log 10 ((Copies/ml) + 1) (human coronavirus OC43; T24h) | Mean viral genome copy number, Log 10 ((Copies/ml) + 1) (human coronavirus OC43; T48h) | Mean viral genome copy number, Log 10 ((Copies/ml) + 1) (human coronavirus OC43; T72h) | Mean viral genome copy number, Log 10 ((Copies/ml) + 1) (human coronavirus OC43; T96h) | Apical genome copy number in comparison to negative control (human coronavirus OC43; each timepoint T24h - T96h) | TEER [2] |
| --- | --- | --- | --- | --- | --- | --- | --- | --- |
| N#C[C@@]1(c2ccc3c(N)ncnn23)O[C@H](CO)[C@@H](O)[C@H]1O [Positive antiviral control, GS-441524] | about 15 Hz | 0.00 Log 10 ((Copies/ml) + 1) | 0.00 Log 10 ((Copies/ml) + 1) | 0.00 Log 10 ((Copies/ml) + 1) | 5.21 Log 10 ((Copies/ml) + 1) | 4.69 Log 10 ((Copies/ml) + 1) | statistically significantly reduced |  |
| Polyethylene glycol tert-octylphenyl ether [positive controls for cytotoxicity] |  |  |  |  |  |  |  | below 100 Ω.cm^2 |
